Among the data in patent publication US11498921B1, “Pyrimidine or pyridine compounds, preparation method therefor and pharmaceutical uses thereof” (INVENTISBIO CO., LTD., priority 2014, dated 2022) are IC50 values, retold here.

Format in all cases: cell-based
Assay [1] has as its system NCI-H1975 cells (T790M and L858R EGFR mutations). As to the kind of experiment: Cell growth inhibition (Cell Titer-Glo), NCI-H1975. The following applies: Homo sapiens, 72 hours drug treatment, 0.03 nM to 100 nM. On the procedure: (§1) Experiment of Cell Growth Inhibition
(§2) The LoVo cell line is a wild-type EGFR human colon adenocarcinoma cell, and is grown in F-12K medium (GIBCO) containing 10% FBS. NCI-H2073 cell line is a wild-type EGFR human non-small cell lung cancer cell and grown in ACL-4 medium containing 10% FBS. The growth rate of NCI-H1975, LoVo and NCI-H2073 cells was detected by Cell Titer-Glo luminescence activity assay (Promega #G7572).
(§3) Briefly, trypsin was used for digesting cells in the logarithmic growth phase. 96-well plates were seeded with 50,000 Lovo or NCI-H2073 cells, 2500-3000 NCI-H1975 cells per well and provided with blank control wells containing only nutrient solution without inoculated cell, and the plates were incubated in a humidified incubator with 5% CO2 at 37° C. […] The concentration of test drug in NCI-H1975 cells was from 0.03 nM to 100 nM, and that in LoVo and NCI-H2073 cells was from 3 nM to 10 μM. The cell culture medium containing the different compounds was then added to a 96-well cell plate in which one cell control well comprising cell culture medium only containing DMSO was provided. After a drug treatment for 72 hours, the cell plates were removed from the incubator and allowed to stand at room temperature for 30 minutes. Next, Cell Titer-Glo reagent was added to the wells and the 96-well cell plate was shaken at room temperature for 10 minutes to induce cell lysis. The 96-well cell plate was placed on the bench for 2 minutes to stabilize the luminescence signal. Finally, the 96-well cell plate was placed in an EnVision Multi-labeled Microplate Reader (PerkinElmer), and the signal was read with an integral time of 0.5 seconds.
(§4) Formula: Percentage of cell growth inhibition %=(maximum signal−compound signal)/(maximum signal−minimum signal)*100%
(§5) The maximal signal was obtained from the cell control well which were treated with the DMSO solution having no any compound;
(§6) The compound signal was obtained from the drug-treated cell wells to which the compound was added;
(§7) The minimum signal was obtained from a blank control well to which no cells and only nutrient solution was added.
(ATP-based viability assays read luminescence as a measure of living cells.)

Assay [2] has as its system NCI-H2073 cells (wild-type EGFR human non-small cell lung cancer). The assay can be described thus: Cell growth inhibition (Cell Titer-Glo), NCI-H2073. The following applies: 72 hours drug treatment, 3 nM to 10 μM. How it is done:
as §1
as §2, with “The compounds that were preferentially targeted for EGFR targeting certain mutations and relatively weak in wild-type EGFR were identified by determining the growth of cells. The NCI-H1975 cell line is a human non-small cell lung cancer cell containing T790M and L858R EGFR mutations, and the cell is grown in RPMI-1640 medium (GIBCO) containing 10% fetal bovine serum (FBS). The LoVo” for “The LoVo”
Briefly, trypsin was used for digesting cells in the logarithmic growth phase. 96-well plates were seeded with 50,000 Lovo or NCI-H2073 cells, 2500-3000 NCI-H1975 cells per well and provided with blank control wells containing only nutrient solution without inoculated cell, and the plates were incubated in a humidified incubator with 5% CO2 at 37° C. After 24 hours, the DMSO solution of the different compounds was diluted with a cell culture medium at 3.16 times per time to eight different concentrations from high to low levels. The concentration of test drug in NCI-H1975 cells was from 0.03 nM to 100 nM, and that in LoVo and NCI-H2073 cells was from 3 nM to 10 μM. The cell culture medium containing the different compounds was then added to a 96-well cell plate in which one cell control well comprising cell culture medium only containing DMSO was provided. After a drug treatment for 72 hours, the cell plates were removed from the incubator and allowed to stand at room temperature for 30 minutes. Next, Cell Titer-Glo reagent was added to the wells and the 96-well cell plate was shaken at room temperature for 10 minutes to induce cell lysis. The 96-well cell plate was placed on the bench for 2 minutes to stabilize the luminescence signal. Finally, the 96-well cell plate was placed in an EnVision Multi-labeled Microplate Reader (PerkinElmer), and the signal was read with an integral time of 0.5 seconds.
as §4, §5, §6, §7

The subject of assay [3] is LoVo cells (wild-type EGFR human colon adenocarcinoma). As to the kind of experiment: Cell growth inhibition (Cell Titer-Glo), LoVo. The settings on record: 72 hours drug treatment, 3 nM to 10 μM. How it is done: as §1, §2, §3, §4, §5, §6, §7

Structures can show the parent of a compound that is named as a salt.

In general, IC50 refers to the midpoint of a concentration-inhibition curve. A low value points to inhibition by little substance. Take `C=CC(=O)Nc1cc(Nc2nccc(-c3cn(C)c4ccccc34)n2)c(OC)cc1N(C)CCN(C)CC` [7. (MsOH)3]: the values for the IC50 in assay [1], in assay [2] and in assay [3] were 9.9 nM, 760 nM and 2170 nM, respectively.

As for `C=CC(=O)Nc1cc(Nc2nccc(-n3ccc4ccccc43)n2)c(OC)cc1N(C)CCN(C)C` [3. (MsOH)2], the IC50 in assay [1] is 6.2 nM; in assay [2] it was 295 nM; in assay [3], 3090 nM.

Turning to `C=CC(=O)Nc1cc(Nc2nccc(-c3cccc4c3cnn4C)n2)c(OC)cc1N(C)CCN(C)C` [42. (HCl)n], the IC50 stood at 7.1 nM in assay [1], 490 nM in assay [2] and 7100 nM in assay [3].

For the molecule `C=CC(=O)Nc1cc(Nc2cc(-c3cn(C)c4ccccc34)ncn2)c(OC)cc1N(C)CCN(C)C` [44. (HCl)n], the results for the IC50 in assay [1], in assay [2] and in assay [3] were 14 nM, 280 nM and 870 nM, respectively.

As for `C=CC(=O)Nc1cc(Nc2nccc(-c3cn(C)c4ccccc34)n2)c(OC)cc1N(C)CCN(CC)CC` [8. MsOH], the IC50 in assay [1] was 113 nM; in assay [2], 870 nM; in assay [3], 1940 nM.

With `C=CC(=O)Nc1cc(Nc2nccc(N3CCc4ccccc43)n2)c(OC)cc1N(C)CCN(C)C` [5. (MsOH)3], the IC50 was 5.4 nM in assay [1], 335 nM in assay [2] and 4230 nM in assay [3].

Turning to `C=CC(=O)Nc1cc(Nc2nccc(-n3ccc(=O)c4ccccc43)n2)c(OC)cc1N(C)CCN(C)C` [56. (HCl)n], the half-maximal inhibitory concentration (IC50) in assay [1] is 36 nM; in assay [2], over 10000 nM; in assay [3], 4180 nM.

Consider `[2H]C([2H])([2H])N(CCN(C)C)c1cc(OC)c(Nc2nccc(-n3c(=O)n(C)c4ccccc43)n2)cc1NC(=O)C=C` [59. (HCl)n], for which the IC50 in assay [1] is 1.3 nM; in assay [2], 120 nM; in assay [3], 4180 nM.

Consider `C=CC(=O)Nc1cc(Nc2nccc(N3CCOc4ccccc43)n2)c(OC)cc1N(C)CCN(C)C` [36. (MsOH)3], for which the IC50 in assay [1] is 15 nM; in assay [2], 410 nM; in assay [3] it was 4330 nM.

For the molecule `C=CC(=O)Nc1cc(Nc2nccc(-c3nn(CC)c4ccccc34)n2)c(OC)cc1N(C)CCN(C)C` [51. (HCl)n], the IC50 is 2.6 nM in assay [1], 325 nM in assay [2] and 1280 nM in assay [3].

For the molecule `C=CC(=O)Nc1cc(Nc2nccc(-n3c(=O)n(C)c4ccccc43)n2)c(OC)cc1N(C)CCN(C)C` [40. (MsOH)3], the IC50 was 1.3 nM in assay [1], 183 nM in assay [2] and 6090 nM in assay [3].

Regarding `C=CC(=O)Nc1cc(Nc2nccc(-c3cccc4c3ccn4C)n2)c(OC)cc1N(C)CCN(C)C` [41. (HCl)n], the IC50 in assay [1] was 7.4 nM; in assay [2] it was 340 nM; in assay [3] it was over 10000 nM.

In the case of `[2H]C([2H])([2H])Oc1cc(N(C)CCN(C)C)c(NC(=O)C=C)cc1Nc1nccc(-n2c(=O)n(C)c3ccccc32)n1` [60. (HCl)n], the IC50 worked out at 1.4 nM in assay [1], 110 nM in assay [2] and 4070 nM in assay [3].

As for `C=CC(=O)Nc1cc(Nc2nccc(-c3nc(C)c4ccccn34)n2)c(OC)cc1N(C)CCN(C)C` [52. (HCl)n], the results for the IC50 in assay [1], in assay [2] and in assay [3] were 5.2 nM, 220 nM and 6100 nM, respectively.

In the case of `C=CC(=O)Nc1cc(Nc2nccc(-n3c(=O)[nH]c4ccccc43)n2)c(OC)cc1N(C)CCN(C)C` [39. (MsOH)3], the figures for the IC50 in assay [1], in assay [2] and in assay [3] were 0.8 nM, 18 nM and 3390 nM, respectively.

In the case of `C=CC(=O)Nc1cc(Nc2nccc(-n3[nH]c(=O)c4ccccc43)n2)c(OC)cc1N(C)CCN(C)C` [50. (HCl)n], the IC50 in assay [1] was 9.2 nM; in assay [2] it was 290 nM; in assay [3], over 10000 nM.

`C=CC(=O)Nc1cc(Nc2nccc(-c3cn(C)c4ccccc34)n2)c(OC)cc1N(C)CCN1CCC(O)C1` (stereo not drawn) [53. (HCl)n]: the IC50 came out at 14 nM in assay [1], 690 nM in assay [2] and 2860 nM in assay [3].
